In patent US20240190880A1 (THE REGENTS OF THE UNIVERSITY OF MICHIGAN, priority 2021, published 2024) one finds DC50 data, which are given here for 16 molecules.

A value given as a limit tells only on which side of the number the result lay.

The first assay has as its target T1, ER (Homo sapiens, UniProt P03372).
T1 construct: host or cells: T47D and MCF7 human breast cancer cells
T1 sequence (P03372 1-595): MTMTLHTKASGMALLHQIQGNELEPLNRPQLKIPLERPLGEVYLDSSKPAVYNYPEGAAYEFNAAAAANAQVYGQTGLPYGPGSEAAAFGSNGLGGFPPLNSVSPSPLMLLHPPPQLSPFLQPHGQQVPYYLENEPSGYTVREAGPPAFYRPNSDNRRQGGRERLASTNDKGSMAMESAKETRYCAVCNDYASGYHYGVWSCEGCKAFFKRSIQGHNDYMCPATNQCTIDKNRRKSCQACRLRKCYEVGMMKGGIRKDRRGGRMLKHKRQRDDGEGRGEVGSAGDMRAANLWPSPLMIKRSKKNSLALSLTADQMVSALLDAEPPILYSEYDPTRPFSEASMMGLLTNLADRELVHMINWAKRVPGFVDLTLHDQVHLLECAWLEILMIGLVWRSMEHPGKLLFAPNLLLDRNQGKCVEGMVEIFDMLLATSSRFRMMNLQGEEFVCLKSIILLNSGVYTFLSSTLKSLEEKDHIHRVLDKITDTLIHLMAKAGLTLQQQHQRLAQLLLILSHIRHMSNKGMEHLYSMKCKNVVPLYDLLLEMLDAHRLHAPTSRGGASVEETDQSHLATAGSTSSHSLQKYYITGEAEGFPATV
As to the kind of experiment: ER degradation activity, in-cell western blot analysis in T47D cells. It counts as cell-based. To be noted: 16 hours, Table A does not say which cell line (T47D or MCF7), read-out: Potency (DC50). Summed up:
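In-cell western, T47D; compounds 16 h, 0.5% DMSO final; anti-rabbit-680/anti-mouse-800 secondaries, 1 h RT, dark; read on CLX imager. ER % vs untreated/DMSO wells (100%).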
Take `O=C1CCC(N2C(=O)c3cc4c(cc3C2=O)CN([C@H]2CC[C@H](C(=O)N3CC(Nc5ccc([C@H]6c7ccc(O)cc7CC[C@H]6c6ccccc6)cc5)C3)CC2)C4)C(=O)N1` (stereo partly drawn) [E 387, 2-(2,6-dioxopiperidin-3-yl)-6-((1S,4r)-4-(3-((4-((1S,2R)-6-hydroxy-2-phenyl-1,2,3,4-tetrahydronaphthalen-1-yl)phenyl)amino)azetidine-1-carbonyl)cyclohexyl)-6,7-dihydropyrrolo[3,4-f]isoindole-1,3(2H,5H)-dione]: the 50% degradation concentration (DC50) was under 10 nM.

Turning to `C[C@@H]1Cc2c([nH]c3ccccc23)[C@@H](c2c(F)cc(N3CC(C(=O)N4CC(N5Cc6cc7c(cc6C5)C(=O)N(C5CCC(=O)NC5=O)C7=O)C4)C3)cc2F)N1CC(F)F` (stereo partly drawn) [E 229, 6-(1-(1-(4-((1R,3R)-2-(2,2-difluoroethyl)-3-methyl-2,3,4,9-tetrahydro-1H-pyrido[3,4-b]indol-1-yl)-3,5-difluorophenyl)azetidine-3-carbonyl)azetidin-3-yl)-2-(2,6-dioxopiperidin-3-yl)-6,7-dihydropyrrolo[3,4-f]isoindole-1,3(2H,5H)-dione], the DC50 was in the range of 10 to 100 nM. On the same count and under the same terms, the figure for `C[C@@H]1Cc2c([nH]c3ccccc23)[C@@H](c2c(F)cc(N3CCC(N4CCC(CN5Cc6cc7c(cc6C5)C(=O)N(C5CCC(=O)NC5=O)C7)CC4)CC3)cc2F)N1CC(F)F` (stereo partly drawn) [E 86, 3-(6-((1′-(4-((1R,3R)-2-(2,2-difluoroethyl)-3-methyl-2,3,4,9-tetrahydro-1H-pyrido[3,4-b]indol-1-yl)-3,5-difluorophenyl)-[1,4′-bipiperidin]-4-yl)methyl)-1-oxo-3,5,6,7-tetrahydropyrrolo[3,4-f]isoindol-2(1H)-yl)piperidine-2,6-dione] is 10 to 100 nM; for `O=C1CCC(N2C(=O)c3cc4c(cc3C2=O)CN(CC(=O)N2CC3(CCN(c5ccc([C@@H]6c7ccc(O)cc7CC[C@@H]6c6ccccc6)c(F)c5)CC3)C2)C4)C(=O)N1` (mixture of isomers) [E 174, Rac-2-(2,6-dioxopiperidin-3-yl)-6-(2-(7-(3-fluoro-4-((1S,2S)-6-hydroxy-2-phenyl-1,2,3,4-tetrahydronaphthalen-1-yl)phenyl)-2,7-diazaspiro[3.5]nonan-2-yl)-2-oxoethyl)-6,7-dihydropyrrolo[3,4-f]isoindole-1,3(2H,5H)-dione] it is 10 to 100 nM. Still for that read-out and setting: in the case of `C[C@@H]1Cc2cc(O)ccc2[C@@H](c2c(F)cc(N3CC4(CCN(CC(=O)N5Cc6cc7c(cc6C5)C(=O)N(C5CCC(=O)NC5=O)C7)CC4)C3)cc2F)N1CC(C)(F)F` (stereo partly drawn) [E 26, 3-(6-(2-(2-(4-((1S,3R)-2-(2,2-difluoropropyl)-6-hydroxy-3-methyl-1,2,3,4-tetrahydroisoquinolin-1-yl)-3,5-difluorophenyl)-2,7-diazaspiro[3.5]nonan-7-yl)acetyl)-1-oxo-3,5,6,7-tetrahydropyrrolo[3,4-f]isoindol-2(1H)-yl)piperidine-2,6-dione] it was over 100 nM; in that of `O=C1CCC(N2C(=O)c3cc4c(cc3C2=O)CN(CC(=O)N2CCC3(CC2)CCN(c2ccc([C@@H]5c6ccc(O)cc6CC[C@@H]5C5CCC(F)(F)CC5)cc2)CC3)C4)C(=O)N1` (mixture of isomers) [E 178, Rac-6-(2-(9-(4-((1R,2R)-2-(4,4-difluorocyclohexyl)-6-hydroxy-1,2,3,4-tetrahydronaphthalen-1-yl)phenyl)-3,9-diazaspiro[5.5]undecan-3-yl)-2-oxoethyl)-2-(2,6-dioxopiperidin-3-yl)-6,7-dihydropyrrolo[3,4-f]isoindole-1,3(2H,5H)-dione], 10 to 100 nM. As for `O=C1CCC(N2C(=O)c3cc4c(cc3C2=O)CN(C2CCC(C(=O)NC3CN(c5ccc([C@@H]6c7ccc(O)cc7CC[C@@H]6c6ccccc6)cc5)C3)CC2)C4)C(=O)N1` (stereo partly shown) [E 336], the half-maximal degradation concentration (DC50) was over 100 nM. On the same count and under the same terms, in the case of `C[C@@H]1Cc2c([nH]c3ccccc23)[C@@H](c2c(F)cc(N3CC(C(=O)N4CCC(N5Cc6cc7c(cc6C5)C(=O)N(C5CCC(=O)NC5=O)C7=O)CC4)C3)cc2F)N1CC(F)F` (stereo partly drawn) [E 122, 6-(1-(1-(4-((1R,3R)-2-(2,2-difluoroethyl)-3-methyl-2,3,4,9-tetrahydro-1H-pyrido[3,4-b]indol-1-yl)-3,5-difluorophenyl)azetidine-3-carbonyl)piperidin-4-yl)-2-(2,6-dioxopiperidin-3-yl)-6,7-dihydropyrrolo[3,4-f]isoindole-1,3(2H,5H)-dione] it was under 10 nM.

In the case of `C[C@@H]1Cc2c([nH]c3ccccc23)[C@@H](c2ccc(C3=CCC(C(=O)N4CCC(N5Cc6cc7c(cc6C5)C(=O)N(C5CCC(=O)NC5=O)C7=O)CC4)CC3)cc2)N1CC(F)F` (stereo partly drawn) [E 316, 6-(1-(4′-((1R,3R)-2-(2,2-difluoroethyl)-3-methyl-2,3,4,9-tetrahydro-1H-pyrido[3,4-b]indol-1-yl)-2,3,4,5-tetrahydro-[1,1′-biphenyl]-4-carbonyl)piperidin-4-yl)-2-(2,6-dioxopiperidin-3-yl)-6,7-dihydropyrrolo[3,4-f]isoindole-1,3(2H,5H)-dione], the half-maximal degradation concentration (DC50) is over 100 nM. With `O=C1CCC(N2C(=O)c3cc4c(cc3C2=O)CN(CC2CN(C(=O)C3CCN(c5ccc([C@@H]6c7ccc(O)cc7CC[C@@H]6c6ccccc6)cc5)CC3)C2)C4)C(=O)N1` (mixture of isomers) [E 16, Rac-2-(2,6-dioxopiperidin-3-yl)-6-((1-(1-(4-((1R,2S)-6-hydroxy-2-phenyl-1,2,3,4-tetrahydronaphthalen-1-yl)phenyl)piperidine-4-carbonyl)azetidin-3-yl)methyl)-6,7-dihydropyrrolo[3,4-f]isoindole-1,3(2H,5H)-dione], the DC50 fell in the range of 10 to 100 nM. As to `C[C@H]1CC2(CCN(CC(=O)N3Cc4cc5c(cc4C3)C(=O)N(C3CCC(=O)NC3=O)C5=O)CC2)CN1c1ccc([C@@H]2c3ccc(O)cc3CC[C@@H]2c2ccccc2)cc1` (mixture of isomers) [E 144, Rac-2-(2,6-dioxopiperidin-3-yl)-6-(2-((S)-2-(4-((1R,2S)-6-hydroxy-2-phenyl-1,2,3,4-tetrahydronaphthalen-1-yl)phenyl)-3-methyl-2,8-diazaspiro[4.5]decan-8-yl)acetyl)-6,7-dihydropyrrolo[3,4-f]isoindole-1,3(2H,5H)-dione], the DC50 is over 100 nM.

The same assay, now with this note: compounds 16 hours, Table A does not say whether T47D or MCF7, read-out: Potency (DC50).
With `O=C1CCC(N2Cc3cc4c(cc3C2=O)CN(CC2CN(CC3CCN(c5ccc([C@@H]6c7ccc(O)cc7CC[C@@H]6c6ccccc6)cc5)CC3)C2)C4=O)C(=O)N1` (stereo partly drawn) [E 504, 2-(2,6-dioxopiperidin-3-yl)-6-((1-((1-(4-((1R,2S)-6-hydroxy-2-phenyl-1,2,3,4-tetrahydronaphthalen-1-yl)phenyl)piperidin-4-yl)methyl)azetidin-3-yl)methyl)-2,3,6,7-tetrahydropyrrolo[3,4-f]isoindole-1,5-dione], the DC50 was over 100 nM.

As for `O=C1CCC(N2C(=O)c3cc4c(cc3C2=O)CC2(C4)CN(CC(=O)N3CC(Oc4ccc([C@@H]5c6ccc(O)cc6CC[C@@H]5c5ccccc5)cc4)C3)C2)C(=O)N1` (stereo partly drawn) [E 503, 2′-(2,6-dioxopiperidin-3-yl)-1-(2-(3-(4-((1R,2S)-6-hydroxy-2-phenyl-1,2,3,4-tetrahydronaphthalen-1-yl)phenoxy)azetidin-1-yl)-2-oxoethyl)-5′,7′-dihydro-1′H-spiro[azetidine-3,6′-cyclopenta[f]isoindole]-1′,3′(2′H)-dione], the half-maximal degradation concentration (DC50) was over 100 nM. Same read-out and setting: in the case of `O=C1CCC(N2C(=O)c3cc4c(cc3C2=O)CN(CC(=O)N2CCC(Oc3ccc([C@@H]5c6ccc(O)cc6CC[C@@H]5c5ccccc5)cc3)CC2)C4)C(=O)N1` (stereo partly drawn) [E 489, 2-(2,6-dioxopiperidin-3-yl)-6-(2-(4-(4-((1R,2S)-6-hydroxy-2-phenyl-1,2,3,4-tetrahydronaphthalen-1-yl)phenoxy)piperidin-1-yl)-2-oxoethyl)-6,7-dihydropyrrolo[3,4-f]isoindole-1,3(2H,5H)-dione] it was 10 to 100 nM; in that of `COc1c2c(cc3c1CN(C1CCC(=O)NC1=O)C3=O)CN(CC(=O)N1CCC3(CC1)CCN(c1cc(F)c([C@@H]4c5[nH]c6ccccc6c5C[C@@H](C)N4CC(F)F)c(F)c1)CC3)C2` (stereo partly drawn) [E 444, 3-(6-(2-(9-(4-((1R,3R)-2-(2,2-difluoroethyl)-3-methyl-2,3,4,9-tetrahydro-1H-pyrido[3,4-b]indol-1-yl)-3,5-difluorophenyl)-3,9-diazaspiro[5.5]undecan-3-yl)-2-oxoethyl)-4-methoxy-1-oxo-3,5,6,7-tetrahydropyrrolo[3,4-f]isoindol-2(1H)-yl)piperidine-2,6-dione], under 10 nM. With `O=C1CCC(N2C(=O)c3cc4c(cc3C2=O)CN(CC2CCC3(CC2)CCN(C(=O)c2ccc([C@@H]5c6ccc(O)cc6CC[C@@H]5c5ccccc5)cc2)CC3)C4)C(=O)N1` (stereo partly drawn) [E 492, 2-(2,6-dioxopiperidin-3-yl)-6-((3-(4-((1R,2S)-6-hydroxy-2-phenyl-1,2,3,4-tetrahydronaphthalen-1-yl)benzoyl)-3-azaspiro[5.5]undecan-9-yl)methyl)-6,7-dihydropyrrolo[3,4-f]isoindole-1,3(2H,5H)-dione], the 50% degradation concentration (DC50) was over 100 nM.

As usually defined, the DC50 is the concentration giving 50% degradation.
